Measurements from patent publication US10851132B2, “Protein based adhesive composition and method” (SEWON BIOTECHNOLOGY INC., priority 2015, dated 2020).
Ends that are not written are not given here.

Assays:
[1] = Affinity chromatography with heparin-agarose beads; type: binding; details: Examples 11 and 12; FIG. 11, FIG. 12
Description: (§1) For chromatography, heparin-agarose beads (Biovision) and GlcNAc-agarose beads (Sigma) were used. 10 ng of FITC labelled peptide (F-peptide) was mixed in PBS-T buffer with heparin-agarose beads and GlcNAc-agarose beads, each precoated with BSA, and incubated at RT for 10 min. Then the mixture was washed 3 times with PBS-T buffer and resuspended in PBS for fluorescent measurement. For competitive binding experiments, the present peptide not labelled with FITC (Cold) was added to the mixture at various ratios of 1:1, 1:10 (10 times) and 1:100 (100 times) and allowed for incubation followed by fluorescent measurement. As a negative control, only FITC dyes were used to react with the beads. Further fluorescent signals from a sample containing just beads suspended in PBS were used as a blank.
(§2) The peptides as listed and described in Table 2 were synthesized as described in Example 1 and tested for its adhesiveness to heparin and N-Acetylglucosamine (GAG) according to the methods described in Example 5.

[2] = Affinity chromatography with GlcNAc-agarose beads; type: binding; details: Examples 11 and 12; FIG. 11, FIG. 12
Description: as §1, §2

MC3T3-E1 = experiment: Comparative cell attachment experiment with soluble RGDs (CCK-8); type: cell-based, Mouse; details: RGDs peptides used alone, 0-1000 μM; FIG. 4C
Description: The present peptide A7-1 (10 μM) or A7-1 together with soluble RGDs peptide (0, 10, 100 and 1000 μM) for competition assay were added to anchorage dependent cells MC3T3-E1 in a test tube and incubated for 10 min. Then the cells were transferred to a culture plate and incubated for 10 min in a thermostatic incubator to allow the cells to attach. After 10 min, the medium was removed and the cells were washed 2 times with PBS to remove any unattached cells and a fresh medium without the peptide and CCK-8 (Dojindo) were added to the cells and incubated for 1 hr in a thermostatic incubator. Then the absorbance was measured at 450 nm. The medium mixed with CCK-8 only was used as a blank.

osteoblast MC3TC-E1 = experiment: Safety in osteoblasts: proliferation, viability, differentiation; type: cell-based, Mouse; details: 0.1, 1, 10 and 100 μM
Description: The safety of the present peptides was determined using osteoblast MC3TC-E1. Osteoblasts were treated with A7-1 peptide as prepared in Example 1 at the concentration of 0.1 μM, 1 μM, 10 μM and 100 μM. Then the effect of the present peptide on the proliferation (FIG. 8A), viability (FIG. 8B) and differentiation (FIG. 8C) on the cells was examined. For testing the effect on the […], MC3T3-E1 and C2C12 cell lines were treated with BMP (rhBMP2, 10 ng/ml for 3 days) and differentiation medium for bone formation for 6 days to induce differentiation. The results were examined by cell staining. It is observed that the present peptide has no effect on the proliferation rate, viability rate or whether or not the cells are differentiated.

Question: What does the source list for KQLVVKFRALPC [SEQ ID NO: 21]?
Answer: adhesiveness to heparin [1]: working; adhesiveness to N-Acetylglucosamine (GAG) [2]: working

Question: For “RGDs: soluble RGDs peptides used as a competitor; binds to adhesive molecule integrins (RGDS)”, which “adhesiveness of the cells” value (MC3T3-E1) is on record?
Answer: decreased in a concentration dependent manner

Question: Which “effect on proliferation rate” value (osteoblast MC3TC-E1; FIG. 8A) does the source give for RQLVVKFRALPC [A7-1] here?
Answer: no effect

Question: And the “effect on viability rate” value (osteoblast MC3TC-E1; FIG. 8B)?
Answer: no effect

Question: What about the “effect on whether or not the cells are differentiated” value (osteoblast MC3TC-E1; FIG. 8C) of the same substance?
Answer: no effect
